From patent US12415803B2, “Fused imidazopyridines as reversible inhibitors of Brutons Tyrosine Kinase (BTK)” (Merck Patent GmbH, priority 2018, dated 2025)

Experiments:
full-length human BTK = full-length human BTK (Homo sapiens (Human), UniProt Q06187); assay: BTK IC50 Enzyme Assay (microfluidic off-chip mobility shift kinase assay); assay type: biochemical; settings: Btk Enzymatic IC50 Assay, 90 min at 27 C;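 note: Read-out separates phosphorylated peptide product from substrate by their charge-to-mass difference, with IC50 fitted from log inhibitor concentration against percent enzyme activity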
Btk = Btk (Homo sapiens (Human), UniProt Q06187); assay: Btk PBMC IC50 Cell Assay (anti-IgM-induced CD69 expression on B cells); assay type: cell-based; settings: anti-IgM-induced CD69 expression on CD19 positive cells in human PBMCs;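 note: freshly isolated human PBMCs, IC50 from concentration-response of the share of CD19+ cells expressing CD69 after anti-IgM BCR stimulation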
Sequence of Btk (Q06187 whole entry): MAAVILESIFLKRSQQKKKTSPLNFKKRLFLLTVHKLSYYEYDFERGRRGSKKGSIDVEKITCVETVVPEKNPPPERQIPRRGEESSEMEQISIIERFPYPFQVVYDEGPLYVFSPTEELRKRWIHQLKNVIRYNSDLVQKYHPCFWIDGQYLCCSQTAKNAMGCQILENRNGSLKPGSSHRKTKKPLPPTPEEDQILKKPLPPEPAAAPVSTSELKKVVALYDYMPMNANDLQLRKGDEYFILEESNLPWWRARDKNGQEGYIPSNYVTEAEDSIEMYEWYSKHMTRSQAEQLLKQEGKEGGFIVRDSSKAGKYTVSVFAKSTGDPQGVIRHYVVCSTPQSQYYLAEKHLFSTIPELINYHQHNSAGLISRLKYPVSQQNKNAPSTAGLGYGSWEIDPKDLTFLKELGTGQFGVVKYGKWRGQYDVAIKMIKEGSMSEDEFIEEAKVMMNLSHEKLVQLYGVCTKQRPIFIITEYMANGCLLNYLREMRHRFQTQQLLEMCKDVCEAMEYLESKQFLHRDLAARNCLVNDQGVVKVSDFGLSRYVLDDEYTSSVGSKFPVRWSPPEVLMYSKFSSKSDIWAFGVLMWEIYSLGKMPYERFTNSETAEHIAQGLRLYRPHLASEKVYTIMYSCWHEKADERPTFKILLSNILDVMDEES

Sequence of full-length human BTK (Q06187 whole entry): as above

IC50 (full-length human BTK) [nM] | IC50 (Btk) [nM] | Compound
1 to 10 | 10 to 100 | Cc1nn(C)c(C)c1-c1nc2c(-c3ccc4c(c3)CCCC[C@@H]4NC(=O)c3noc(C4(C)CC4)n3)ccnc2[nH]1 [Compound 13, 5-(1-Methyl-cyclopropyl)-[1,2,4]oxadiazole-3-carboxylic acid {(S)-2-[2-(1,3,5-trimethyl-1H-pyrazol-4-yl)-3H-imidazo[4,5-b]pyridin-7-yl]-6,7,8,9-tetrahydro-5H-benzocyclohepten-5-yl}-amide]
< 1 | 10 to 100 | Cc1nn(C)c(C)c1-c1nc2c(-c3ccc4c(c3)OCCCC4NC(=O)c3noc(C(C)(C)C)n3)ccnc2[nH]1 (stereo not drawn) [Compound 14, 5-tert-Butyl-[1,2,4]oxadiazole-3-carboxylic acid {8-[2-(1,3,5-trimethyl-1H-pyrazol-4-yl)-3H-imidazo[4,5-b]pyridin-7-yl]-2,3,4,5-tetrahydro-benzo[b]oxepin-5-yl}-amide]
1 to 10 | > 100 | Cc1nn(C)c(C)c1-c1nc2c(-c3ccc4c(c3)OCCC[C@H]4NC(=O)c3noc(C(C)(C)C)n3)ccnc2[nH]1 [Compound 15, 5-tert-Butyl-[1,2,4]oxadiazole-3-carboxylic acid {(R)-8-[2-(1,3,5-trimethyl-1H-pyrazol-4-yl)-3H-imidazo[4,5-b]pyridin-7-yl]-2,3,4,5-tetrahydro-benzo[b]oxepin-5-yl}-amide]
< 1 | 1 to 10 | Cc1nn(C)c(C)c1-c1nc2c(-c3ccc4c(c3)OCCC[C@@H]4NC(=O)c3noc(C(C)(C)C)n3)ccnc2[nH]1 [Compound 16, 5-tert-Butyl-[1,2,4]oxadiazole-3-carboxylic acid {(S)-8-[2-(1,3,5-trimethyl-1H-pyrazol-4-yl)-3H-imidazo[4,5-b]pyridin-7-yl]-2,3,4,5-tetrahydro-benzo[b]oxepin-5-yl}-amide]
1 to 10 | 10 to 100 | Cc1nn(C)c(C)c1-c1nc2c(-c3ccc4c(c3)OCCCC4NC(=O)c3nnc(C(C)(C)C)o3)ccnc2[nH]1 (stereo not drawn) [Compound 17, 5-tert-Butyl-[1,3,4]oxadiazole-2-carboxylic acid {8-[2-(1,3,5-trimethyl-1H-pyrazol-4-yl)-3H-imidazo[4,5-b]pyridin-7-yl]-2,3,4,5-tetrahydro-benzo[b]oxepin-5-yl}-amide]
> 100 | > 100 | Cc1nn(C)c(C)c1-c1nc2c(-c3ccc4c(c3)OCCC[C@H]4NC(=O)c3nnc(C(C)(C)C)o3)ccnc2[nH]1 [Compound 18, 5-tert-Butyl-[1,3,4]oxadiazole-2-carboxylic acid {(R)-8-[2-(1,3,5-trimethyl-1H-pyrazol-4-yl)-3H-imidazo[4,5-b]pyridin-7-yl]-2,3,4,5-tetrahydro-benzo[b]oxepin-5-yl}-amide]
< 1 | 1 to 10 | Cc1nn(C)c(C)c1-c1nc2c(-c3ccc4c(c3)OCCC[C@@H]4NC(=O)c3nnc(C(C)(C)C)o3)ccnc2[nH]1 [Compound 19, 5-tert-Butyl-[1,3,4]oxadiazole-2-carboxylic acid {(S)-8-[2-(1,3,5-trimethyl-1H-pyrazol-4-yl)-3H-imidazo[4,5-b]pyridin-7-yl]-2,3,4,5-tetrahydro-benzo[b]oxepin-5-yl}-amide]
< 1 | 1 to 10 | Cc1c(-c2nc3c(-c4ccc5c(c4)CCCCC5NC(=O)c4noc(C(C)(C)C)n4)ccnc3[nH]2)cnn1C(C)C (stereo not drawn) [Compound 20, 5-tert-Butyl-[1,2,4]oxadiazole-3-carboxylic acid {2-[2-(1-isopropyl-5-methyl-1H-pyrazol-4-yl)-3H-imidazo[4,5-b]pyridin-7-yl]-6,7,8,9-tetrahydro-5H-benzocyclohepten-5-yl}-amide]
< 1 | 1 to 10 | Cc1c(-c2nc3c(-c4ccc5c(c4)CCCC[C@H]5NC(=O)c4noc(C(C)(C)C)n4)ccnc3[nH]2)cnn1C(C)C [Compound 21, 5-tert-Butyl-[1,2,4]oxadiazole-3-carboxylic acid {(R)-2-[2-(1-isopropyl-5-methyl-1H-pyrazol-4-yl)-3H-imidazo[4,5-b]pyridin-7-yl]-6,7,8,9-tetrahydro-5H-benzocyclohepten-5-yl}-amide]
1 to 10 | 10 to 100 | Cc1c(-c2nc3c(-c4ccc5c(c4)CCCC[C@@H]5NC(=O)c4noc(C(C)(C)C)n4)ccnc3[nH]2)cnn1C(C)C [Compound 22, 5-tert-Butyl-[1,2,4]oxadiazole-3-carboxylic acid {(S)-2-[2-(1-isopropyl-5-methyl-1H-pyrazol-4-yl)-3H-imidazo[4,5-b]pyridin-7-yl]-6,7,8,9-tetrahydro-5H-benzocyclohepten-5-yl}-amide]
< 1 | 1 to 10 | Cc1c(-c2nc3c(-c4ccc5c(c4)CCCCC5NC(=O)c4noc(C5(C)CC5)n4)ccnc3[nH]2)cnn1C(C)C (stereo not drawn) [Compound 23, 5-(1-Methyl-cyclopropyl)-[1,2,4]oxadiazole-3-carboxylic acid {2-[2-(1-isopropyl-5-methyl-1H-pyrazol-4-yl)-3H-imidazo[4,5-b]pyridin-7-yl]-6,7,8,9-tetrahydro-5H-benzocyclohepten-5-yl}-amide]
1 to 10 | 10 to 100 | Cc1c(-c2nc3c(-c4ccc5c(c4)CCCC[C@@H]5NC(=O)c4noc(C5(C)CC5)n4)ccnc3[nH]2)cnn1C(C)C [Compound 25, 5-(1-Methyl-cyclopropyl)-[1,2,4]oxadiazole-3-carboxylic acid {(S)-2-[2-(1-isopropyl-5-methyl-1H-pyrazol-4-yl)-3H-imidazo[4,5-b]pyridin-7-yl]-6,7,8,9-tetrahydro-5H-benzocyclohepten-5-yl}-amide]
< 1 | 1 to 10 | Cc1c(-c2nc3c(-c4ccc5c(c4)CCCC[C@H]5NC(=O)c4nc(C5(C)CC5)no4)ccnc3[nH]2)cnn1C(C)C [Compound 27, 3-(1-Methyl-cyclopropyl)-[1,2,4]oxadiazole-5-carboxylic acid {(R)-2-[2-(1-isopropyl-5-methyl-1H-pyrazol-4-yl)-3H-imidazo[4,5-b]pyridin-7-yl]-6,7,8,9-tetrahydro-5H-benzocyclohepten-5-yl}-amide]
> 100 | > 100 | Cc1c(-c2nc3c(-c4ccc5c(c4)CCCC[C@@H]5NC(=O)c4nc(C5(C)CC5)no4)ccnc3[nH]2)cnn1C(C)C [Compound 28, 3-(1-Methyl-cyclopropyl)-[1,2,4]oxadiazole-5-carboxylic acid {(S)-2-[2-(1-isopropyl-5-methyl-1H-pyrazol-4-yl)-3H-imidazo[4,5-b]pyridin-7-yl]-6,7,8,9-tetrahydro-5H-benzocyclohepten-5-yl}-amide]
< 1 | 1 to 10 | Cc1nn(C(C)C)c(C)c1-c1nc2c(-c3ccc4c(c3)CCCCC4NC(=O)c3noc(C(C)(C)C)n3)ccnc2[nH]1 (stereo not drawn) [Compound 29, 5-tert-Butyl-[1,2,4]oxadiazole-3-carboxylic acid {2-[2-(1-isopropyl-3,5-dimethyl-1H-pyrazol-4-yl)-3H-imidazo[4,5-b]pyridin-7-yl]-6,7,8,9-tetrahydro-5H-benzocyclohepten-5-yl}-amide]
< 1 | 1 to 10 | Cc1nn(C(C)C)c(C)c1-c1nc2c(-c3ccc4c(c3)CCCC[C@H]4NC(=O)c3noc(C(C)(C)C)n3)ccnc2[nH]1 [Compound 30, 5-tert-Butyl-[1,2,4]oxadiazole-3-carboxylic acid {(R)-2-[2-(1-isopropyl-3,5-dimethyl-1H-pyrazol-4-yl)-3H-imidazo[4,5-b]pyridin-7-yl]-6,7,8,9-tetrahydro-5H-benzocyclohepten-5-yl}-amide]
1 to 10 | 10 to 100 | Cc1nn(C(C)C)c(C)c1-c1nc2c(-c3ccc4c(c3)CCCC[C@@H]4NC(=O)c3noc(C(C)(C)C)n3)ccnc2[nH]1 [Compound 31, 5-tert-Butyl-[1,2,4]oxadiazole-3-carboxylic acid {(S)-2-[2-(1-isopropyl-3,5-dimethyl-1H-pyrazol-4-yl)-3H-imidazo[4,5-b]pyridin-7-yl]-6,7,8,9-tetrahydro-5H-benzocyclohepten-5-yl}-amide]
< 1 | 1 to 10 | Cc1nn(C(C)C)c(C)c1-c1nc2c(-c3ccc4c(c3)CCCCC4NC(=O)c3noc(C4(C)CC4)n3)ccnc2[nH]1 (stereo not drawn) [Compound 32, 5-(1-Methyl-cyclopropyl)-[1,2,4]oxadiazole-3-carboxylic acid {2-[2-(1-isopropyl-3,5-dimethyl-1H-pyrazol-4-yl)-3H-imidazo[4,5-b]pyridin-7-yl]-6,7,8,9-tetrahydro-5H-benzocyclohepten-5-yl}-amide]
1 to 10 | > 100 | Cc1nn(C(C)C)c(C)c1-c1nc2c(-c3ccc4c(c3)CCCC[C@@H]4NC(=O)c3noc(C4(C)CC4)n3)ccnc2[nH]1 [Compound 34, 5-(1-Methyl-cyclopropyl)-[1,2,4]oxadiazole-3-carboxylic acid {(S)-2-[2-(1-isopropyl-3,5-dimethyl-1H-pyrazol-4-yl)-3H-imidazo[4,5-b]pyridin-7-yl]-6,7,8,9-tetrahydro-5H-benzocyclohepten-5-yl}-amide]
< 1 | 1 to 10 | Cc1nn(C(C)C)c(C)c1-c1nc2c(-c3ccc4c(c3)CCCCC4NC(=O)c3nc(C4(C)CC4)no3)ccnc2[nH]1 (stereo not drawn) [Compound 35, 3-(1-Methyl-cyclopropyl)-[1,2,4]oxadiazole-5-carboxylic acid {2-[2-(1-isopropyl-3,5-dimethyl-1H-pyrazol-4-yl)-3H-imidazo[4,5-b]pyridin-7-yl]-6,7,8,9-tetrahydro-5H-benzocyclohepten-5-yl}-amide]
1 to 10 | > 100 | Cc1nn(C(C)C)c(C)c1-c1nc2c(-c3ccc4c(c3)CCCC[C@@H]4NC(=O)c3nc(C4(C)CC4)no3)ccnc2[nH]1 [Compound 36, 3-(1-Methyl-cyclopropyl)-[1,2,4]oxadiazole-5-carboxylic acid {(S)-2-[2-(1-isopropyl-3,5-dimethyl-1H-pyrazol-4-yl)-3H-imidazo[4,5-b]pyridin-7-yl]-6,7,8,9-tetrahydro-5H-benzocyclohepten-5-yl}-amide]
